Source: patent publication US8946478B2, “Benzamide derivative with anticancer activity and preparation method and use thereof” (Zhejiang Hisun Pharmaceutical Co., Ltd., priority 2010, dated 2015)

Columns and labels:
[1] = test system: human ovarian cancer cell strain SKOV-3; experiment: In vitro SRB tumor cell growth inhibition (GI50); format: cell-based; settings: SK-OV-3, SKOV-3 cells, 48 h
Procedure: (§1) Human colon cancer cell strains (Colo205 and HCT-116), human breast cancer cell strains (MCF-7 and MDA-MB435), human lung cancer cell strains (A549, 95D and NCI460), human ovarian cancer cell strains (OVCAR-5, OVCAR-8, HO8910 and SKOV-3), human leukemia (HL-60 and K562), human prostate cancer (DU145 and BXPC-3), human uterine cancer (Hela), human pancreatic cancer (PANC-1), human hepatoma (HepG 2) were all obtained from ATCC. Colo205, HL-60, K562 cells were cultured in RPMI 1640 containing 2 mM/L glutamine, 10% FBS, 1.0 mM sodium pyruvate. HCT-116, MCF-7, A549, 95D, HO8910, NCI460, OVCAR-5, OVCAR-8, DU145, BXPC-3, Hela, PANC-1, HepG2 cells were cultured in DMEM containing 2 mM/L glutamine, 10% FBS. MDA-MB435 cells were cultured in L-15 containing 2 mM/L glutamine, 10% FBS. SKOV-3 cells were cultured in McCoy's containing 2 mM/L glutamine, 10% FBS. Colo205, HL-60 and K562 cells were seeded in 96-well plates, 150 μL/well and 8000 cells/well, and the 96-well plates were pre-incubated in an incubator at 37° C. with 5% CO2, 100% relative humidity for 24 hours. HCT-116, MCF-7, NCI460, OVCAR-5, OVCAR-8, Hela, HepG 2 and MDA-MB435 cells were seeded in 96-well plates, 5000 cells/well; A549, 95D, HO8910, DU145, BXPC-3, PANC-1 and SKOV-3 cells were seeded in 96-well plates, 10000 cells/well, and the 96-well plates were pre-incubated in an incubator at 37° C. with 5% CO2, 100% relative humidity for 24 hours, to allow the cells to adhere.
(§2) 50 μL of pre-cooled 50% (mass/volume) TCA was added into the time zero control wells for each cell strain to fix the cells. To other wells, 50 μL of various concentrations of compounds were added, and maintained for 48 h, wherein each drug concentration was in triplicate, and there were blank control wells (cell culture medium without cells), drug-free control wells (with no drugs but the same volume of complete medium) and positive drug BSI-201 control wells, and the plates were incubated in an incubator at 37° C. with 5% CO2, full humidity (100% relative humidity) for 48 hours
(§3) 50 μL pre-cooled 50% (mass/volume) TCA was added onto the surface of the culture medium to fix the cells, which was then placed at 4° C. for 1 h. The supernatant was removed and each well was washed with deionized water for 5 times to remove TCA, serum proteins, etc. After dried in the air, about 100 μL enough amount of 0.4% SRB (formulated with 1% acetic acid) was added into each well, and was placed at room temperature for 20 to 30 min. Liquid in each well was discarded and each well was rapidly washed with 1% acetic acid for five times, to remove unbound dye until the unbound dye was completely rinsed clean. After dried in the air until the moisture was invisible, each well was added 200 μL Tris base to dissolve, shaken on a plate oscillator for 5 min or mixed by beating up and down with a pipette tip, and then measured on the multi-function instruction (M5 Detection System, MD Group Ltd.) with a detection wavelength of 515 nm, zero adjusted with 690 nm blank control.
(§4) The dose-response curve was plotted by XL-fit to determine the GI50 value.

[2] = test system: human uterine cancer Hela; experiment: In vitro SRB tumor cell growth inhibition (GI50); format: cell-based; settings: Homo sapiens, HeLa, 48 h, Hela cells
Procedure: as §1, §2, §3, §4

[3] = test system: human lung cancer cell strain 95D; experiment: In vitro SRB tumor cell growth inhibition (GI50); format: cell-based; settings: Homo sapiens, 95-D, 48 h, 95D cells
Procedure: as §1, §2, §3, §4

[4] = test system: human lung cancer cell strain A549; experiment: In vitro SRB tumor cell growth inhibition (GI50); format: cell-based; settings: A549 cells, 48 h
Procedure: as §1, §2, §3, §4

[5] = test system: human breast cancer cell strain MCF-7; experiment: In vitro SRB tumor cell growth inhibition (GI50); format: cell-based; settings: Homo sapiens, MCF7, 48 h, MCF-7 cells
Procedure: as §1, §2, §3, §4

human hepatoma HepG 2 = experiment: In vitro SRB tumor cell growth inhibition (GI50); format: cell-based; settings: HepG2, HepG 2 cells, 48 h
Procedure: as §1, §2, §3, §4

[6] = test system: human ovarian cancer cell strain OVCAR-5; experiment: In vitro SRB tumor cell growth inhibition (GI50); format: cell-based; settings: OVCAR-5 cells, 48 h
Procedure: as §1, §2, §3, §4

[7] = test system: human ovarian cancer cell strain HO8910; experiment: In vitro SRB tumor cell growth inhibition (GI50); format: cell-based; settings: HO-8910, HO8910 cells, 48 h
Procedure: as §1, §2, §3, §4

[8] = test system: human ovarian cancer cell strain OVCAR-8; experiment: In vitro SRB tumor cell growth inhibition (GI50); format: cell-based; settings: OVCAR-8 cells
Procedure: as §1, §2, §3, §4

[9] = test system: human colon cancer cell strain Colo205; experiment: In vitro SRB tumor cell growth inhibition (GI50); format: cell-based; settings: Colo 205 cells, 48 h
Procedure: as §1, §2, §3, §4

[10] = test system: human prostate cancer BXPC-3; experiment: In vitro SRB tumor cell growth inhibition (GI50); format: cell-based; settings: BXPC-3 cells, 48 h
Procedure: as §1, §2, §3, §4

[11] = test system: human breast cancer cell strain MDA-MB435; experiment: In vitro SRB tumor cell growth inhibition (GI50); format: cell-based; settings: Homo sapiens, MDA-MB-435, 48 h, MDA-MB435 cells
Procedure: as §1, §2, §3, §4

human leukemia K562 = experiment: In vitro SRB tumor cell growth inhibition (GI50); format: cell-based; settings: Homo sapiens, K562, 48 h, K562 cells
Procedure: as §1, §2, §3, §4

[12] = test system: human lung cancer cell strain NCI-460; experiment: In vitro SRB tumor cell growth inhibition (GI50); format: cell-based; settings: Homo sapiens, NCI-460, 48 h, NCI-460 cells
Procedure: as §1, §2, §3, §4

[13] = test system: human prostate cancer DU145; experiment: In vitro SRB tumor cell growth inhibition (GI50); format: cell-based; settings: Homo sapiens, DU-145, 48 h, DU145 cells
Procedure: as §1, §2, §3, §4

[14] = test system: human colon cancer cell strain HCT-116; experiment: In vitro SRB tumor cell growth inhibition (GI50); format: cell-based; settings: Homo sapiens, HCT-116, 48 h, HCT-116 cells
Procedure: as §1, §2, §3, §4

human leukemia HL-60 = experiment: In vitro SRB tumor cell growth inhibition (GI50); format: cell-based; settings: Homo sapiens, HL-60, 48 h, HL-60 cells
Procedure: as §1, §2, §3, §4

[15] = test system: human pancreatic cancer PANC-1; experiment: In vitro SRB tumor cell growth inhibition (GI50); format: cell-based; settings: Homo sapiens, PANC-1, 48 h, PANC-1 cells
Procedure: as §1, §2, §3, §4

18 tumor cell strains = experiment: In vitro efficacy screening, summary over the tumor cell strains; format: cell-based, human; settings: in vitro screening; for inhibitory effects on tumor cell proliferation (in words): BSI-201 as positive drug
Procedure: as §1, §2, §3, §4

C#Cc1ccc(C(=O)N2CCCCC2)cc1[N+](=O)[O-] [Compound I-21, (4-ethynyl-3-nitrophenyl)(piperidin-1-yl)ketone]
GI50 [1]: 22.5 µM
GI50 [2]: 4.17 µM
GI50 [3]: 14.5 µM
GI50 [4]: 17.9 µM
GI50 [5]: 16.1 µM
GI50 (human hepatoma HepG 2): 16 µM
GI50 [6]: 17.5 µM
GI50 [7]: 4.34 µM
GI50 ([8]; Homo sapiens, OVCAR-8, 48 h): 1.64 µM
GI50 [9]: 1.52 µM
GI50 [10]: 3.91 µM
GI50 [11]: 5.86 µM
GI50 (human leukemia K562): 1.77 µM
GI50 [12]: 5.86 µM
GI50 [13]: 2.24 µM
GI50 [14]: 8.44 µM
GI50 (human leukemia HL-60): 2.87 µM
GI50 [15]: 12.5 µM
efficacy in inhibition of tumor cell proliferation, graded in words against I-1 (18 tumor cell strains): slightly lower than that of I-1
inhibitory effects on tumor cell proliferation (in words) (18 tumor cell strains): have inhibitory effects on tumor cell proliferation

C#Cc1ccc(C(=O)N2CCN(C)CC2)cc1[N+](=O)[O-] [Compound I-24, (4-ethynyl-3-nitrophenyl)(4-methylpiperazin-1-yl)ketone]
GI50 [1]: 9.77 µM
GI50 [2]: 10.1 µM
GI50 [3]: 25.8 µM
GI50 [4]: 30.1 µM
GI50 [5]: 21.5 µM
GI50 (human hepatoma HepG 2): 7.12 µM
GI50 [6]: 35.6 µM
GI50 [7]: 10.2 µM
GI50 ([8]; 48 h): 8.92 µM
GI50 [9]: 10.9 µM
GI50 [10]: 10.2 µM
GI50 [11]: 14.5 µM
GI50 (human leukemia K562): 8.03 µM
GI50 [12]: 31.1 µM
GI50 [13]: 6.17 µM
GI50 [14]: 8.62 µM
GI50 (human leukemia HL-60): 2.47 µM
GI50 [15]: 24.3 µM
efficacy in inhibition of tumor cell proliferation, graded in words against I-1 (18 tumor cell strains): slightly lower than that of I-1
inhibitory effects on tumor cell proliferation (in words) (18 tumor cell strains): have inhibitory effects on tumor cell proliferation

C#Cc1ccc(C(=O)N2CCCC2)cc1[N+](=O)[O-] [Compound I-20, (4-ethynyl-3-nitrophenyl)(pyrrolidin-1-yl)ketone]
GI50 [1]: 9.91 µM
GI50 [2]: 8.98 µM
GI50 [3]: 15.1 µM
GI50 [4]: 17.3 µM
GI50 [5]: 20.6 µM
GI50 (human hepatoma HepG 2): 5.54 µM
GI50 [6]: 20.3 µM
GI50 [7]: 4.85 µM
GI50 ([8]; Homo sapiens, OVCAR-8, 48 h): 4.01 µM
GI50 [9]: 2.61 µM
GI50 [10]: 3.35 µM
GI50 [11]: 8.49 µM
GI50 (human leukemia K562): 4.35 µM
GI50 [12]: 19.9 µM
GI50 [13]: 4.99 µM
GI50 [14]: 9.99 µM
GI50 (human leukemia HL-60): 2.24 µM
GI50 [15]: 7.64 µM
efficacy in inhibition of tumor cell proliferation, graded in words against I-1 (18 tumor cell strains): slightly lower than that of I-1
inhibitory effects on tumor cell proliferation (in words) (18 tumor cell strains): have inhibitory effects on tumor cell proliferation
